The kinase profiling compilation of Christmann-Franck et al. (2016)

Legend:
Assay in all cases: KINOMEscan competition binding
Conditions in all cases: compound 10.0 µM
MAP4K4 (human) = MAP4K4 (human) (UniProt O95819)
[1] = test system: KIT (human), P10721 [A829P]
CDK14 (human) = CDK14 (human) (UniProt O94921)
ACVR2B (human) = ACVR2B (human) (UniProt Q13705)
ABL2 (human) = ABL2 (human) (UniProt P42684)
CDK8 (human) = CDK8 (human) (UniProt P49336)
CSNK1D (human) = CSNK1D (human) (UniProt P48730)
DYRK1B (human) = DYRK1B (human) (UniProt Q9Y463)
ACVR2A (human) = ACVR2A (human) (UniProt P27037)
CAMK2D (human) = CAMK2D (human) (UniProt Q13557)
Sequence of CAMK2D (human) (Q13557 whole entry, looked up): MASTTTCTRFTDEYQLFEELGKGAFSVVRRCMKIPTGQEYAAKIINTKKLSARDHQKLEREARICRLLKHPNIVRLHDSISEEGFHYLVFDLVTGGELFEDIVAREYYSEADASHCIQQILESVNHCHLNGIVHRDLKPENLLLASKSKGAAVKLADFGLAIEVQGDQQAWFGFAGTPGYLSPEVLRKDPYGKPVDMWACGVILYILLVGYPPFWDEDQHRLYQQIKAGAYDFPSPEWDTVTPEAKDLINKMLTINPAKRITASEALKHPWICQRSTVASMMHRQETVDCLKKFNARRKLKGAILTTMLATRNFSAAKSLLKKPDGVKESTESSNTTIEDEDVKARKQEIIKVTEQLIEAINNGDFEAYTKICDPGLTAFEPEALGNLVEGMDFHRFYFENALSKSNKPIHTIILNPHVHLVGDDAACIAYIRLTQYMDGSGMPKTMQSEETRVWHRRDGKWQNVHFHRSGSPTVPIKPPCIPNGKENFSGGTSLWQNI

TSSK1B (human) = TSSK1B (human) (UniProt Q9BXA7)
ADCK3 (human) = ADCK3 (human) (UniProt Q8NI60)
Sequence of ADCK3 (human) (Q8NI60 whole entry, looked up): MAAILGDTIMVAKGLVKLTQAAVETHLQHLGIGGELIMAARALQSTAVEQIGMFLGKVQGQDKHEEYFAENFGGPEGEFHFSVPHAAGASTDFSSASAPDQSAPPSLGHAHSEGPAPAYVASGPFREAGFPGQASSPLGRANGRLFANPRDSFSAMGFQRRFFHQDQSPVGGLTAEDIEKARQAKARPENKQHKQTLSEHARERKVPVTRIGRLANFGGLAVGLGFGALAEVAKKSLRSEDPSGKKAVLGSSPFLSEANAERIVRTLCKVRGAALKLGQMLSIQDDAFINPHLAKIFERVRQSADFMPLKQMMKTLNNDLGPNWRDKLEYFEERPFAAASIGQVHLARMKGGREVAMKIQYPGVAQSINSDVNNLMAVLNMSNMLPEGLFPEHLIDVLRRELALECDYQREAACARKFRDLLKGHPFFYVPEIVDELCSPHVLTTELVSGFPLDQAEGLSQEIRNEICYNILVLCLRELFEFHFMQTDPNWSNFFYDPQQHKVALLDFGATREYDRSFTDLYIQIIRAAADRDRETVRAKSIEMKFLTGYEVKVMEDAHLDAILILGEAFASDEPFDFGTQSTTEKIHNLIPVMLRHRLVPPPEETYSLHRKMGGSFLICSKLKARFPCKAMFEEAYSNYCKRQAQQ

SLK (human) = SLK (human) (UniProt Q9H2G2)
ERBB2 (human) = ERBB2 (human) (UniProt P04626)
SRMS (human) = SRMS (human) (UniProt Q9H3Y6)
DCLK1 (human) = DCLK1 (human) (UniProt O15075)
STK4 (human) = STK4 (human) (UniProt Q13043)
AURKC (human) = AURKC (human) (UniProt Q9UQB9)
Sequence of AURKC (human) (Q9UQB9 whole entry, looked up): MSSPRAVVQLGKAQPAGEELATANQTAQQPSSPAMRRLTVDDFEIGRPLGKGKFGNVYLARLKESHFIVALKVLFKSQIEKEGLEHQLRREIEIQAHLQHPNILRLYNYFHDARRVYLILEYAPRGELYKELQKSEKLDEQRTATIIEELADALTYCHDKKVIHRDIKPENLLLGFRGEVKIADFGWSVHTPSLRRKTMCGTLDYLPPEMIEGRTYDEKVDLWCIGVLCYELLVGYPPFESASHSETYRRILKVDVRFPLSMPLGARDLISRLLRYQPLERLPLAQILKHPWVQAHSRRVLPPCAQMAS

SRPK3 (human) = SRPK3 (human) (UniProt Q9UPE1)
Sequence of SRPK3 (human) (Q9UPE1 whole entry, looked up): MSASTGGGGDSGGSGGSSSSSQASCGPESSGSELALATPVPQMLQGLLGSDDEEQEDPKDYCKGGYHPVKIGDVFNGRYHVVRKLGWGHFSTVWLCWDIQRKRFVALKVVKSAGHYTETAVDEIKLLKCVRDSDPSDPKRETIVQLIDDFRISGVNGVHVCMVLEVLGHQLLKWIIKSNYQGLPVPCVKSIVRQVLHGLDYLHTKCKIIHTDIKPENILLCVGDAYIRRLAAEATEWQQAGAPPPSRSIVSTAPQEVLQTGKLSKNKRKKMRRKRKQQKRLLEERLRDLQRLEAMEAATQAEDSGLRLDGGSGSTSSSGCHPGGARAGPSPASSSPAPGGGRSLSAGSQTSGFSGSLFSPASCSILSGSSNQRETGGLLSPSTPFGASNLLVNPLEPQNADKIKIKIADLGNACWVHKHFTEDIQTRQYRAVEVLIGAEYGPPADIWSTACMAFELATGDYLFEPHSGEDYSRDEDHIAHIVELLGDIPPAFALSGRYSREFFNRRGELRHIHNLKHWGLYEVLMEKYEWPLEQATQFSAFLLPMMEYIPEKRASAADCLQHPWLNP

EPHB6 (human) = EPHB6 (human) (UniProt O15197)
[2] = test system: FLT3 (human), P36888 [K663Q]
MST4 (human) = MST4 (human) (UniProt Q9P289)
RIOK3 (human) = RIOK3 (human) (UniProt O14730)
PRKCH (human) = PRKCH (human) (UniProt P24723)
Sequence of PRKCH (human) (P24723 whole entry, looked up): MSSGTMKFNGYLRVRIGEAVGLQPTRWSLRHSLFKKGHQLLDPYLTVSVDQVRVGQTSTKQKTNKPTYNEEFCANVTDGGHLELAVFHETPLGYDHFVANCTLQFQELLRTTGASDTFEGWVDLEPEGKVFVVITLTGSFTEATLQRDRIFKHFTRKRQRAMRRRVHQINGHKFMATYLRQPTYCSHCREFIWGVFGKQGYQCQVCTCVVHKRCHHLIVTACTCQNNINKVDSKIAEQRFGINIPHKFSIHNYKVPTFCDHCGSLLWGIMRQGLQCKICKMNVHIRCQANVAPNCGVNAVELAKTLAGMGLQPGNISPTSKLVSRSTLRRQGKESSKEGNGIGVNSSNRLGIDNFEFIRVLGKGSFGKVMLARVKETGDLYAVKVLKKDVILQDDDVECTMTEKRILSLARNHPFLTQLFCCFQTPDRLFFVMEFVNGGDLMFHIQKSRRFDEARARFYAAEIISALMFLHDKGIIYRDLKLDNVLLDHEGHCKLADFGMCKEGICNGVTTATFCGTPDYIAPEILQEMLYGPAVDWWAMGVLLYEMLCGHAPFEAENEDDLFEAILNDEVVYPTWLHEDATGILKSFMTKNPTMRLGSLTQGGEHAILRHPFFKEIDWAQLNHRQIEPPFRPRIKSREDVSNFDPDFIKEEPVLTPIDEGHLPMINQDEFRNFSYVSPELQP

ACVRL1 (human) = ACVRL1 (human) (UniProt P37023)
Sequence of ACVRL1 (human) (P37023 whole entry, looked up): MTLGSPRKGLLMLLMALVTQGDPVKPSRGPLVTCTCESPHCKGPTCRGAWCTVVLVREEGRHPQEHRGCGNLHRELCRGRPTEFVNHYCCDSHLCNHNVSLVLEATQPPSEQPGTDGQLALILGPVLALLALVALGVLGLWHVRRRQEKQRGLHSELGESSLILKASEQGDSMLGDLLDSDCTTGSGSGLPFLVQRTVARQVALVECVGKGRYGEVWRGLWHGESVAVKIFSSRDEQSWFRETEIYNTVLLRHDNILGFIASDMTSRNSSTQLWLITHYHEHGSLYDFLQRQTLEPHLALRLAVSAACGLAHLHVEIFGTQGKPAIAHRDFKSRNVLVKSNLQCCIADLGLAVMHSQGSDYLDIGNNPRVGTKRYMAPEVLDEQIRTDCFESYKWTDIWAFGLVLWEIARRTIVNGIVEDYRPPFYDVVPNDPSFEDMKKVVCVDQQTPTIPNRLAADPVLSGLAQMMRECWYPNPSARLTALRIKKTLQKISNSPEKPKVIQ

GSK3B (human) = GSK3B (human) (UniProt P49841)
ERBB4 (human) = ERBB4 (human) (UniProt Q15303)
CDK7 (human) = CDK7 (human) (UniProt P50613)
[3] = test system: KIT (human), P10721 [V559D/T670I]
PIP5K1A (human) = PIP5K1A (human) (UniProt Q99755)
TEC (human) = TEC (human) (UniProt P42680)
Sequence of TEC (human) (P42680 whole entry, looked up): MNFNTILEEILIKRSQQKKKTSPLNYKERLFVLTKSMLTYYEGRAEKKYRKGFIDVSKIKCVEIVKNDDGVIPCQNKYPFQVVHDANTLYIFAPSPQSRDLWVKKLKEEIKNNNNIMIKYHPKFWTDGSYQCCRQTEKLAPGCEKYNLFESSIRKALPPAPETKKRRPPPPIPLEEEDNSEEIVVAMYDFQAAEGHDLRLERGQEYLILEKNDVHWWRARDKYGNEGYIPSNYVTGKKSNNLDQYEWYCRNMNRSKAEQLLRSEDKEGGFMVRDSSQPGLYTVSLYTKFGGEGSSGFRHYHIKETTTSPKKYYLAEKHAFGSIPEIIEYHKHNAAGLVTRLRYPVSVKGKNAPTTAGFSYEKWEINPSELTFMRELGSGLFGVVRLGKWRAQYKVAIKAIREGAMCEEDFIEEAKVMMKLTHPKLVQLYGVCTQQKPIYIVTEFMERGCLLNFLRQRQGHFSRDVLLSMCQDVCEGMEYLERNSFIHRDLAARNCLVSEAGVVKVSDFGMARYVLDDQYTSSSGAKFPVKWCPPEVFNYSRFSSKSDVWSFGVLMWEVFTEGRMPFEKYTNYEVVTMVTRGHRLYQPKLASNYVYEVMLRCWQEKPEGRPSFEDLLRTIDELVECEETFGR

KIT (human) = KIT (human) (UniProt P10721)
EIF2AK2 (human) = EIF2AK2 (human) (UniProt P19525)
NEK1 (human) = NEK1 (human) (UniProt Q96PY6)
RIPK2 (human) = RIPK2 (human) (UniProt O43353)
ROCK1 (human) = ROCK1 (human) (UniProt Q13464)
PLK1 (human) = PLK1 (human) (UniProt P53350)
CAMK1D (human) = CAMK1D (human) (UniProt Q8IU85)
PIK3CD (human) = PIK3CD (human) (UniProt O00329)
PRKG2 (human) = PRKG2 (human) (UniProt Q13237)
[4] = test system: PIK3CA (human), P42336 [H1047L]

Sequence of ABL2 (human) (P42684 whole entry, looked up): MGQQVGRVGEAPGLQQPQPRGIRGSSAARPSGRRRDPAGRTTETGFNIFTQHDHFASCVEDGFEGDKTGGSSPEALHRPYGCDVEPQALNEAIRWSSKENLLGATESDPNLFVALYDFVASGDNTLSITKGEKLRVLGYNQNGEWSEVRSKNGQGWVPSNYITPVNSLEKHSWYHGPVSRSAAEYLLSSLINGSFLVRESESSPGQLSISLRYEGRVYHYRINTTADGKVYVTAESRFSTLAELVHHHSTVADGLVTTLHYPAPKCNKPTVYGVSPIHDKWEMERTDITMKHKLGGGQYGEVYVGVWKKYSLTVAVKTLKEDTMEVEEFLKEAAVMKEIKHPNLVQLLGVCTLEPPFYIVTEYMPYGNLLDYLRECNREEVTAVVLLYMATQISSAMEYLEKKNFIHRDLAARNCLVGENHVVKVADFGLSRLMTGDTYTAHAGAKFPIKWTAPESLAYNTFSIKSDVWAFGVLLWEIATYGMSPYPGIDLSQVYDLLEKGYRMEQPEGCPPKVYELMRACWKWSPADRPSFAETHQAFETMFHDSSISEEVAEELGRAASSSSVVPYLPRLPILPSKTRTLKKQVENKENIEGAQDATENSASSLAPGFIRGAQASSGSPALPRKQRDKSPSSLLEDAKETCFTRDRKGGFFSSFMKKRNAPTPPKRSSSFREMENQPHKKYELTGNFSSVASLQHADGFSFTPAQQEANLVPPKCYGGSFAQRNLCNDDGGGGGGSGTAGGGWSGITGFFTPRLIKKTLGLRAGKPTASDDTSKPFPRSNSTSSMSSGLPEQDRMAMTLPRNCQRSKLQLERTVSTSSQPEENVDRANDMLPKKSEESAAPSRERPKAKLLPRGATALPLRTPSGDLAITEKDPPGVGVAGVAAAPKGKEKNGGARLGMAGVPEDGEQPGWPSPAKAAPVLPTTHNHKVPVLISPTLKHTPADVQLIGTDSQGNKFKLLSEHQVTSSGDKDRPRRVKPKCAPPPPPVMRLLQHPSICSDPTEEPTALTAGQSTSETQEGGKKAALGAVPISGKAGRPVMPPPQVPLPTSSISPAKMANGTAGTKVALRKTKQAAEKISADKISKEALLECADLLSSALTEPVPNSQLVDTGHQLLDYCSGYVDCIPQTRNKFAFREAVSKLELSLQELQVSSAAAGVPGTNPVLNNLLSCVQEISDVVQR

CC(C)n1nc(-c2cc3cc(O)ccc3[nH]2)c2c(N)ncnc21
kinase still bound, per cent of control (MAP4K4 (human)): 38% | kinase still bound, per cent of control [1]: 10% | per cent of control (CDK14 (human)): 100% | kinase still bound, per cent of control (ACVR2B (human)): 2% | kinase still bound, per cent of control (ABL2 (human)): 28% | per cent of control (CDK8 (human)): 43% | per cent of control (CSNK1D (human)): 2.4% | kinase still bound, per cent of control (DYRK1B (human)): 59% | kinase still bound, per cent of control (ACVR2A (human)): 0.5% | kinase still bound, per cent of control (CAMK2D (human)): 69% | kinase still bound, per cent of control (TSSK1B (human)): 83% | kinase still bound, per cent of control (ADCK3 (human)): 57% | kinase still bound, per cent of control (SLK (human)): 0.2% | kinase still bound, per cent of control (ERBB2 (human)): 29% | kinase still bound, per cent of control (SRMS (human)): 61% | kinase still bound, per cent of control (DCLK1 (human)): 70% | kinase still bound, per cent of control (STK4 (human)): 84% | kinase still bound, per cent of control (AURKC (human)): 68% | kinase still bound, per cent of control (SRPK3 (human)): 83% | kinase still bound, per cent of control (EPHB6 (human)): 5.3% | kinase still bound, per cent of control [2]: 27% | kinase still bound, per cent of control (MST4 (human)): 31% | kinase still bound, per cent of control (RIOK3 (human)): 83% | kinase still bound, per cent of control (PRKCH (human)): 10% | kinase still bound, per cent of control (ACVRL1 (human)): 6.7% | kinase still bound, per cent of control (GSK3B (human)): 91% | kinase still bound, per cent of control (ERBB4 (human)): 49% | per cent of control (CDK7 (human)): 30% | kinase still bound, per cent of control [3]: 30% | kinase still bound, per cent of control (PIP5K1A (human)): 62% | kinase still bound, per cent of control (TEC (human)): 100% | kinase still bound, per cent of control (KIT (human)): 0.8% | kinase still bound, per cent of control (EIF2AK2 (human)): 48% | kinase still bound, per cent of control (NEK1 (human)): 61% | kinase still bound, per cent of control (RIPK2 (human)): 0.8% | kinase still bound, per cent of control (ROCK1 (human)): 61% | kinase still bound, per cent of control (PLK1 (human)): 87%

CCC(=O)N1CCN(c2ccc(-n3c(=O)ccc4cnc5ccc(-c6cnc7ccccc7c6)cc5c43)cc2C(F)(F)F)CC1
kinase still bound, per cent of control (MAP4K4 (human)): 5.2% | kinase still bound, per cent of control (CAMK1D (human)): 88% | per cent of control (CDK14 (human)): 99% | kinase still bound, per cent of control (ACVR2B (human)): 42% | kinase still bound, per cent of control (ABL2 (human)): 99% | per cent of control (CDK8 (human)): 4.6% | per cent of control (CSNK1D (human)): 4.3% | kinase still bound, per cent of control (DYRK1B (human)): 87% | kinase still bound, per cent of control (ACVR2A (human)): 47% | kinase still bound, per cent of control (PIK3CD (human)): 51% | kinase still bound, per cent of control (CAMK2D (human)): 72% | kinase still bound, per cent of control (TSSK1B (human)): 100% | kinase still bound, per cent of control (ADCK3 (human)): 17% | kinase still bound, per cent of control (SLK (human)): 94% | kinase still bound, per cent of control (ERBB2 (human)): 91% | kinase still bound, per cent of control (SRMS (human)): 92% | kinase still bound, per cent of control (DCLK1 (human)): 100% | kinase still bound, per cent of control (STK4 (human)): 7.6% | kinase still bound, per cent of control (PRKG2 (human)): 78% | kinase still bound, per cent of control (AURKC (human)): 91% | kinase still bound, per cent of control (EPHB6 (human)): 80% | kinase still bound, per cent of control [2]: 23% | kinase still bound, per cent of control (MST4 (human)): 89% | kinase still bound, per cent of control (RIOK3 (human)): 90% | kinase still bound, per cent of control (PRKCH (human)): 92% | kinase still bound, per cent of control (ACVRL1 (human)): 83% | kinase still bound, per cent of control (GSK3B (human)): 100% | kinase still bound, per cent of control (ERBB4 (human)): 100% | per cent of control (CDK7 (human)): 57% | kinase still bound, per cent of control [4]: 2.6% | kinase still bound, per cent of control (PIP5K1A (human)): 89% | kinase still bound, per cent of control (TEC (human)): 99% | kinase still bound, per cent of control (EIF2AK2 (human)): 88% | kinase still bound, per cent of control (NEK1 (human)): 89% | kinase still bound, per cent of control (RIPK2 (human)): 44% | kinase still bound, per cent of control (ROCK1 (human)): 53% | kinase still bound, per cent of control (PLK1 (human)): 85%

COC(=O)Nc1ccc(-c2nc(N3CCOCC3)c3cnn(C4CCN(C(=O)OC)CC4)c3n2)cc1
kinase still bound, per cent of control (MAP4K4 (human)): 88% | kinase still bound, per cent of control [1]: 91% | kinase still bound, per cent of control (CAMK1D (human)): 85% | per cent of control (CDK14 (human)): 100% | kinase still bound, per cent of control (ACVR2B (human)): 100% | kinase still bound, per cent of control (ABL2 (human)): 100% | per cent of control (CDK8 (human)): 100% | per cent of control (CSNK1D (human)): 100% | kinase still bound, per cent of control (DYRK1B (human)): 93% | kinase still bound, per cent of control (ACVR2A (human)): 100% | kinase still bound, per cent of control (PIK3CD (human)): 40% | kinase still bound, per cent of control (CAMK2D (human)): 100% | kinase still bound, per cent of control (TSSK1B (human)): 100% | kinase still bound, per cent of control (ADCK3 (human)): 80% | kinase still bound, per cent of control (SLK (human)): 70% | kinase still bound, per cent of control (ERBB2 (human)): 100% | kinase still bound, per cent of control (SRMS (human)): 78% | kinase still bound, per cent of control (DCLK1 (human)): 93% | kinase still bound, per cent of control (STK4 (human)): 100% | kinase still bound, per cent of control (PRKG2 (human)): 86% | kinase still bound, per cent of control (AURKC (human)): 100% | kinase still bound, per cent of control (SRPK3 (human)): 100% | kinase still bound, per cent of control (EPHB6 (human)): 97% | kinase still bound, per cent of control [2]: 93% | kinase still bound, per cent of control (MST4 (human)): 80% | kinase still bound, per cent of control (RIOK3 (human)): 100% | kinase still bound, per cent of control (PRKCH (human)): 92% | kinase still bound, per cent of control (ACVRL1 (human)): 100% | kinase still bound, per cent of control (GSK3B (human)): 100% | kinase still bound, per cent of control (ERBB4 (human)): 98% | per cent of control (CDK7 (human)): 67% | kinase still bound, per cent of control [3]: 100% | kinase still bound, per cent of control [4]: 12% | kinase still bound, per cent of control (PIP5K1A (human)): 98% | kinase still bound, per cent of control (TEC (human)): 96% | kinase still bound, per cent of control (KIT (human)): 100% | kinase still bound, per cent of control (EIF2AK2 (human)): 100% | kinase still bound, per cent of control (NEK1 (human)): 77% | kinase still bound, per cent of control (RIPK2 (human)): 65% | kinase still bound, per cent of control (ROCK1 (human)): 82% | kinase still bound, per cent of control (PLK1 (human)): 90%

COc1ccc(-c2ccc3c(N4CCOCC4)nc(N4C[C@@H](C)O[C@@H](C)C4)nc3n2)cc1CO
kinase still bound, per cent of control (MAP4K4 (human)): 88% | kinase still bound, per cent of control [1]: 100% | kinase still bound, per cent of control (CAMK1D (human)): 89% | per cent of control (CDK14 (human)): 100% | kinase still bound, per cent of control (ACVR2B (human)): 100% | kinase still bound, per cent of control (ABL2 (human)): 95% | per cent of control (CDK8 (human)): 100% | per cent of control (CSNK1D (human)): 79% | kinase still bound, per cent of control (DYRK1B (human)): 85% | kinase still bound, per cent of control (ACVR2A (human)): 100% | kinase still bound, per cent of control (PIK3CD (human)): 0.95% | kinase still bound, per cent of control (CAMK2D (human)): 100% | kinase still bound, per cent of control (TSSK1B (human)): 91% | kinase still bound, per cent of control (ADCK3 (human)): 87% | kinase still bound, per cent of control (SLK (human)): 98% | kinase still bound, per cent of control (ERBB2 (human)): 94% | kinase still bound, per cent of control (SRMS (human)): 98% | kinase still bound, per cent of control (DCLK1 (human)): 100% | kinase still bound, per cent of control (STK4 (human)): 100% | kinase still bound, per cent of control (PRKG2 (human)): 100% | kinase still bound, per cent of control (AURKC (human)): 100% | kinase still bound, per cent of control (SRPK3 (human)): 75% | kinase still bound, per cent of control (EPHB6 (human)): 83% | kinase still bound, per cent of control [2]: 96% | kinase still bound, per cent of control (MST4 (human)): 100% | kinase still bound, per cent of control (RIOK3 (human)): 100% | kinase still bound, per cent of control (PRKCH (human)): 100% | kinase still bound, per cent of control (ACVRL1 (human)): 100% | kinase still bound, per cent of control (GSK3B (human)): 100% | kinase still bound, per cent of control (ERBB4 (human)): 89% | per cent of control (CDK7 (human)): 73% | kinase still bound, per cent of control [3]: 80% | kinase still bound, per cent of control [4]: 26% | kinase still bound, per cent of control (PIP5K1A (human)): 97% | kinase still bound, per cent of control (TEC (human)): 92% | kinase still bound, per cent of control (KIT (human)): 87% | kinase still bound, per cent of control (EIF2AK2 (human)): 100% | kinase still bound, per cent of control (NEK1 (human)): 100% | kinase still bound, per cent of control (RIPK2 (human)): 100% | kinase still bound, per cent of control (ROCK1 (human)): 89% | kinase still bound, per cent of control (PLK1 (human)): 55%
